These results are taken from PMC6273912, “Novel 5-Substituted 2-(Aylmethylthio)-4-chloro-N-(5-aryl-1,2,4-triazin-3-yl)benzenesulfonamides: Synthesis, Molecular Structure, Anticancer Activity, Apoptosis-Inducing Activity and Metabolic Stability” (Molecules, 2016).

Data set [1] relates to HCT-116 (colon cancer). In words: MTT cell viability assay, HCT-116. It counts as cell-based, human. The settings on record: 72 h of incubation, mean ± SD. The procedure:
(§1) All chemicals, if not stated otherwise, were obtained from Sigma-Aldrich (St. Louis, MO, USA). The MCF-7 cell line was purchased from Cell Lines Services (Eppelheim, Germany), the HeLa and HCT-116 cell lines were obtained from the Department of Microbiology, Tumor and Cell Biology, Karolinska Institute (Stockholm, Sweden). Cells were cultured in Dulbecco’s modified Eagle’s medium (DMEM) supplemented with 10% fetal bovine serum, 2 mM glutamine, 100 units/mL penicillin, and 100 μg/mL streptomycin. Cultures were maintained in a humidified atmosphere with 5% CO2 at 37 °C in an incubator (HeraCell, Heraeus, Langenselbold, Germany).
(§2) Cell viability was determined using the MTT (3-(4,5-dimethylthiazol-2-yl)-2,5-diphenyl-tetrazoliumbromide) assay. Stock solutions of the studied compounds were prepared in 100% DMSO. […] Cells were seeded in 96-well plates at a density of 5 × 10^3 cells/well and treated for 72 h with the examined compounds in the concentration range 1–100 μM (1, 10, 25, 50 and 100 μM). Following treatment, MTT (0.5 mg/mL) was added to the medium and cells were further incubated for 2 h at 37 °C. Cells were lysed with DMSO and the absorbance of the formazan solution was measured at 550 nm with a plate reader (1420 multilabel counter, Victor, Jügesheim, Germany). […] The experiment was performed in triplicate. Values are expressed as the mean ± SD of at least three independent experiments.
In general terms: Tetrazolium dyes change colour on reduction, which living cells bring about.

Data set [2] has as its system HeLa (cervical cancer). The data set can be described thus: MTT cell viability assay, HeLa. It counts as cell-based, human. The settings on record: for IC50: 72 h of incubation, mean ± SD. The procedure:
as §1, §2

For data set [3], the system named is MCF-7 (breast cancer). The data set can be described thus: MTT cell viability assay, MCF-7. Type of data set: cell-based, human. The settings on record: Homo sapiens, MCF7, 72 h of incubation, mean ± SD. The procedure:
as §1, §2

The nature of data set [4]: Metabolic stability with human liver microsomes and NADPH. Type of data set: in vitro ADME. The conditions noted are these: liver microsomes. The procedure: Stock solutions of studied compounds were prepared at concentration of 10 mM in DMSO. […] Incubation mixture contained 10 μM of a studied derivative, 1 mM of NADPH (Sigma-Aldrich) and 0.5 mg/mL of human liver microsomes (HLM, Sigma-Aldrich) in potassium phosphate buffer (0.1 M, pH 7.4). Incubation was carried out in thermostat at 37 °C and started by addition of studied compound. 50 μL samples were taken after 5, 15, 30, 45 and 60 min. Enzymatic reaction was terminated by the addition of the equal volume of ice-cold acetonitrile containing 10 μM of alprazolam (Sigma-Aldrich) serving as internal standard (IS). Control incubations were performed without NADPH to assess chemical instability. After collection, samples were immediately centrifuged (10 min, 10,000 rpm) and resulted supernatant was directly analyzed or kept in −80 °C until LC-MS analysis. Natural logarithm of a compound over IS peak area ratio was plotted versus incubation time. Metabolic half-time (t1/2) was calculated from the slope of the linear regression, as reported in [48].
LC-MS analysis was performed on an Agilent 1260 system coupled to SingleQuad 6120 mass spectrometer (Agilent Technologies, Santa Clara, CA, USA). Ascentis Express ES-CN (2.1 mm × 100 mm, 2.7 μm, Supelco Analytical, Bellefonte, PA, USA) was used in reversed-phase mode with gradient elution starting with 50% of phase A (10 mM ammonium formate in water) and 50% of phase B (10 mM ammonium formate in acetonitrile-water mixture, 95:5 v/v). […] Total analysis time was 10 min at 25 °C, flow rate was 0.4 mL/min and the injection volume was 20 μL. The mass spectrometer was equipped with electrospray ion source and operated in positive ionization. Mass analyzer was set individually to each compound to detect [M + H]^+ pseudomolecular ions. MSD parameters of the ESI source were as follows: nebulizer pressure 50 psig (N2), drying gas […] (N2), drying gas temperature 300 °C, capillary voltage 3.5 kV, fragmentor voltage 100 V.

In data set [5] the test system is HeLa as well as HCT-116 cells. In words: MTT cell viability assay, HeLa and HCT-116. Type of data set: cell-based, human. The settings on record: summary over the two cell lines; for IC50: Homo sapiens, read-out: IC50 toward HeLa as well as HCT-116. The procedure: as §1, §2
Data set [6] relates to HCT-116, HeLa and MCF-7. In words: MTT cell viability assay, all tested cell lines together. The conditions noted are these: Homo sapiens; average over HCT-116, HeLa and MCF-7; read-out: average IC50 against all tested cell lines. Type of data set: cell-based. The procedure: as §1, §2
Where [7] appears, read: pH 7.4, human liver microsomes 0.5 mg/mL, 1 mM NADPH, 10 μM compound, pH 7.4, 37 °C, up to 60 min, read-out: In Vitro Metabolic Half-Life t1/2.

Read-outs that look alike come from different tables or passages of the source.

Turning to `COc1ccc(-c2cnnc(NS(=O)(=O)c3cc(C)c(Cl)cc3SCc3ccccc3)n2)cc1OC` [Compound 31, 2-Benzylthio-4-chloro-N-[5-(3,4-dimethoxyphenyl)-1,2,4-triazin-3-yl]-5-methylbenzenesulfonamide], the IC50 (as a rule, the concentration that gives 50% inhibition) in data set [1] (Homo sapiens, HCT-116, 72 h) was 140 ± 7 µM; in data set [2] (Homo sapiens, 72 h) it was 150 ± 6 µM; in data set [3], 77 ± 2 µM. Moreover, the half-life at 10 μM in data set [4] (setting [7]) was determined as 17.6 min.

In the case of `Cc1cc(S(=O)(=O)Nc2nncc(-c3ccc(C(F)(F)F)cc3)n2)c(SCc2ccccc2)cc1Cl` [Compound 28, 2-Benzylthio-4-chloro-5-methyl-N-[5-(4-trifluoromethylphenyl)-1,2,4-triazin-3-yl]benzenesulfonamide], the IC50 was 200 ± 4 µM in data set [1] (Homo sapiens, HCT-116, 72 h); 100 ± 6 µM in data set [2] (Homo sapiens, 72 h); 120 ± 5 µM in data set [3]. Moreover, in data set [5], the “IC50 toward HeLa as well as HCT-116” value is “loss of activity”.

With `COc1ccc(-c2cnnc(NS(=O)(=O)c3cc(C)c(Cl)cc3SCc3cccc4ccccc34)n2)cc1` [Compound 38, 4-Chloro-N-[5-(4-methoxyphenyl)-1,2,4-triazin-3-yl]-5-methyl-2-[(naphthalene-1-yl)methylthio]benzene-sulfonamide], the IC50 was 38 ± 2 µM in data set [1]; 36 to 38 µM in data set [1] (Homo sapiens, HCT-116, 72 h); 42 ± 1 µM in data set [2]; 34 to 42 µM in data set [2] (Homo sapiens, 72 h); 69 ± 1 µM in data set [3]; 50 µM in data set [6]. The half-life at 10 μM in data set [4] (setting [7]) was below 5 min.

For `Cc1cc(S(=O)(=O)Nc2nncc(-c3cccc(F)c3)n2)c(SCc2cccc3ccccc23)cc1Cl` [Compound 36, 4-Chloro-N-[5-(3-fluorophenyl)-1,2,4-triazin-3-yl]-5-methyl-2-[(naphthalene-1-yl)methylthio]benzene-sulfonamide], the IC50 in data set [1] (Homo sapiens, HCT-116, 72 h) is 49 ± 2 µM; in data set [2] (Homo sapiens, 72 h), 55 ± 2 µM; in data set [3], 96 ± 4 µM; in data set [6], below 71 µM. Besides, the half-life at 10 μM in data set [4] (setting [7]) was found to be 13.9 min.

On to `Cc1cc(S(=O)(=O)Nc2nncc(-c3cccc(F)c3)n2)c(SCc2c(C)noc2C)cc1Cl` [Compound 39, 4-Chloro-2-[(3,5-dimethylizoxazol-4-yl)methylthio]-N-[5-(3-fluorophenyl)-1,2,4-triazin-3-yl]-5-methyl-benzenesulfonamide], for which the melting point (in general, the temperature, or range, at which the solid turns liquid) was 208 to 211 °C. This compound also had an IC50 in data set [1] (Homo sapiens, HCT-116, 72 h) of 83 ± 2 µM. In data set [2] (Homo sapiens, 72 h), the IC50 is 93 ± 1 µM. This compound returned an IC50 in data set [3] of 95 ± 3 µM.

With `Cc1cc(S(=O)(=O)Nc2nncc(-c3ccc(C(F)(F)F)cc3)n2)c(SCc2c(C)noc2C)cc1Cl` [Compound 40, 4-Chloro-2-[(3,5-dimethylizoxazol-4-yl)methylthio]-5-methyl-N-[5-(4-trifluoromethylphenyl)-1,2,4-triazin-3-yl]benzenesulfonamide], the IC50 in data set [1] (Homo sapiens, HCT-116, 72 h) is 77 ± 1 µM; in data set [2] (Homo sapiens, 72 h) it was 85 ± 2 µM; in data set [3] it was 98 ± 3 µM; in data set [5], 51 to 85 µM.

As to `Cc1cc(S(=O)(=O)Nc2nncc(-c3ccc(C(F)(F)F)cc3)n2)c(SCc2ccc(C(F)(F)F)cc2)cc1Cl` [Compound 34, 4-Chloro-5-methyl-2-[4-(trifluoromethyl)benzylthio]-N-[5-(4-trifluoromethylphenyl)-1,2,4-triazin-3-yl]-benzenesulfonamide], the IC50 in data set [1] (Homo sapiens, HCT-116, 72 h) was 51 ± 1 µM; in data set [2] (Homo sapiens, 72 h) it was 73 ± 1 µM; in data set [3], 68 ± 3 µM; in data set [6], below 71 µM; in data set [5], 51 to 85 µM. The half-life at 10 μM is above 60 min in data set [4] (setting [7]) and 154 min in data set [4] (pH 7.4, value in parentheses beside >60, beyond the 60 min incubation, human liver microsomes, NADPH, read-out: In Vitro Metabolic Half-Life t1/2 (min), value in parentheses).

Regarding `COc1ccc(-c2cnnc(NS(=O)(=O)c3cc(C)c(Cl)cc3SCc3ccc(C(F)(F)F)cc3)n2)cc1` [Compound 35, 4-Chloro-N-[5-(4-methoxyphenyl)-1,2,4-triazin-3-yl]-5-methyl-2-[4-(trifluoromethyl)benzylthio]benzene-sulfonamide], the IC50 in data set [1] (Homo sapiens, HCT-116, 72 h) was 68 ± 3 µM; in data set [2] (Homo sapiens, 72 h), 69 ± 1 µM; in data set [3], 78 ± 2 µM; in data set [6], below 71 µM. Also, the half-life at 10 μM in data set [4] (setting [7]) is 42.4 min.

As to `Cc1ccc(NC(=O)c2cc(S(=O)(=O)Nc3nncc(-c4ccc(C(F)(F)F)cc4)n3)c(SCc3ccccc3)cc2Cl)cc1` [Compound 52, 4-Benzylthio-2-chloro-N-(4-methylphenyl)-5-{N-[5-(4-trifluoromethylphenyl)-1,2,4-triazin-3-yl]sulfamoyl}-benzamide], the IC50 was determined as 70 ± 2 µM in data set [1] (Homo sapiens, HCT-116, 72 h) and 69 ± 1 µM in data set [3]. The viability (in general, a read-out of living cells in per cent, often relative to untreated cells) at 100 µM in data set [2] (Homo sapiens, HeLa, 72 h, 100 μM, read-out: Viability of cell line at 100 μM (HeLa)) stood at 100%. Further, the half-life at 10 μM in data set [4] (setting [7]) was found to be 26.5 min.

For the compound `COc1cccc(-c2cnnc(NS(=O)(=O)c3cc(C)c(Cl)cc3SCc3ccccc3)n2)c1` [Compound 30, 2-Benzylthio-4-chloro-N-[5-(3-methoxyphenyl)-1,2,4-triazin-3-yl]5-methylbenzenesulfonamide], the IC50 worked out at 85 ± 2 µM in data set [1] (Homo sapiens, HCT-116, 72 h); 90 ± 4 µM in data set [2] (Homo sapiens, 72 h); 67 ± 1 µM in data set [3]. Besides, the half-life at 10 μM in data set [4] (setting [7]) stood at 24.9 min.

As to `COc1ccc(-c2cnnc(NS(=O)(=O)c3cc(C(=O)Nc4ccc(Cl)cc4)c(Cl)cc3SCc3ccccc3)n2)cc1` [Compound 47, 4-Benzylthio-2-chloro-N-(4-chlorophenyl)-5-{N-[5-(4-methoxyphenyl)-1,2,4-triazin-3-yl]sulfamoyl}benzamide], the IC50 in data set [1] (Homo sapiens, HCT-116, 72 h) amounted to 75 ± 5 µM; in data set [2] (Homo sapiens, 72 h) it was 79 ± 1 µM; in data set [3], 78 ± 3 µM. Also, in data set [4] (setting [7]), the half-life at 10 μM worked out at 17.5 min.

Consider `COc1ccc(-c2cnnc(NS(=O)(=O)c3cc(C(=O)Nc4ccc(C)cc4)c(Cl)cc3SCc3ccccc3)n2)cc1` [Compound 53, 4-Benzylthio-2-chloro-5-{N-[5-(4-methoxyphenyl)-1,2,4-triazin-3-yl]sulfamoyl}-N-(4-methylphenyl)-benzamide], for which the IC50 stood at 76 ± 2 µM in data set [1] (Homo sapiens, HCT-116, 72 h); 74 ± 2 µM in data set [2] (Homo sapiens, 72 h); 88 ± 2 µM in data set [3].

On to `COc1ccc(NC(=O)c2cc(S(=O)(=O)Nc3nncc(-c4cc(OC)c(OC)c(OC)c4)n3)c(SCc3ccccc3)cc2Cl)cc1` [Compound 60, 4-Benzylthio-2-chloro-N-(4-methoxyphenyl)-5-{N-[5-(3,4,5-trimethoxyphenyl)-1,2,4-triazin-3-yl]sulfamoyl}-benzamide], for which the IC50 was found to be 230 ± 18 µM in data set [1] (Homo sapiens, HCT-116, 72 h); 230 ± 5 µM in data set [2] (Homo sapiens, 72 h); 270 ± 13 µM in data set [3].

Take `COc1ccc(-c2cnnc(NS(=O)(=O)c3cc(C(=O)Nc4ccccc4)c(Cl)cc3SCc3ccccc3)n2)cc1OC` [Compound 44, 4-Benzylthio-2-chloro-5-{N-[5-(3,4-dimethoxyphenyl)-1,2,4-triazin-3-yl]sulfamoyl}-N-phenylbenzamide]: the IC50 came to 160 ± 6 µM in data set [1] (Homo sapiens, HCT-116, 72 h); 160 ± 8 µM in data set [2] (Homo sapiens, 72 h); 90 ± 5 µM in data set [3].
